Test results: PubChem BioAssay (NCI)
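Interpolation was linear, between the two tested concentrations surrounding the appropriate level; five concentrations were tested over 48 hours in 96-well plates. Here, GI50 denotes the concentration required for 50% inhibition of growth. TGI denotes the concentration required for complete inhibition of growth.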

What was measured:
Test in all cases: NCI tumour cell line growth inhibition, 48 h
OVCAR-3 ovarian = tested on: OVCAR-3 ovarian
SF-295 CNS = tested on: SF-295 CNS
A549 NSCLC = tested on: A549 NSCLC
IGROV1 ovarian = tested on: IGROV1 ovarian
SNB-75 CNS = tested on: SNB-75 CNS
NCI-H522 lung = tested on: NCI-H522 lung
SN12C renal = tested on: SN12C renal
MALME-3M melanoma = tested on: MALME-3M melanoma
SK-OV-3 ovarian = tested on: SK-OV-3 ovarian
OVCAR-5 ovarian = tested on: OVCAR-5 ovarian
NCI-H460 lung = tested on: NCI-H460 lung
SK-MEL-5 melanoma = tested on: SK-MEL-5 melanoma
RXF 393 renal = tested on: RXF 393 renal
SR leukemia = tested on: SR leukemia
SF-539 CNS = tested on: SF-539 CNS
HOP-62 NSCLC = tested on: HOP-62 NSCLC
A498 renal = tested on: A498 renal
ACHN renal = tested on: ACHN renal
SF-268 CNS = tested on: SF-268 CNS
TK-10 renal = tested on: TK-10 renal
U251 CNS = tested on: U251 CNS
CCRF-CEM leukemia = tested on: CCRF-CEM leukemia
CAKI-1 renal = tested on: CAKI-1 renal
LOX IMVI melanoma = tested on: LOX IMVI melanoma
NCI/ADR-RES ovarian = tested on: NCI/ADR-RES ovarian
NCI-H23 lung = tested on: NCI-H23 lung
UACC-62 melanoma = tested on: UACC-62 melanoma
HCC-2998 colon = tested on: HCC-2998 colon
K-562 leukemia = tested on: K-562 leukemia
HCT-15 colon = tested on: HCT-15 colon
HCT-116 colon = tested on: HCT-116 colon
MCF7 breast = tested on: MCF7 breast
T-47D breast = tested on: T-47D breast
PC-3 prostate = tested on: PC-3 prostate
HT29 colon = tested on: HT29 colon
UO-31 renal = tested on: UO-31 renal
786-0 renal = tested on: 786-0 renal
DU-145 prostate = tested on: DU-145 prostate
EKVX NSCLC = tested on: EKVX NSCLC
RPMI-8226 leukemia = tested on: RPMI-8226 leukemia
HL-60(TB) leukemia = tested on: HL-60(TB) leukemia
MDA-MB-435 = tested on: MDA-MB-435
KM12 colon = tested on: KM12 colon
COLO 205 colon = tested on: COLO 205 colon
HS 578T breast = tested on: HS 578T breast
UACC-257 melanoma = tested on: UACC-257 melanoma
SNB-19 CNS = tested on: SNB-19 CNS
M14 melanoma = tested on: M14 melanoma
NCI-H226 lung = tested on: NCI-H226 lung
SK-MEL-2 melanoma = tested on: SK-MEL-2 melanoma
OVCAR-8 ovarian = tested on: OVCAR-8 ovarian
HOP-92 NSCLC = tested on: HOP-92 NSCLC
SK-MEL-28 melanoma = tested on: SK-MEL-28 melanoma
SW-620 colon = tested on: SW-620 colon

For `CCNCCNc1cc(-c2ccc(C(=O)OC)cc2)c(C#N)c2nc3ccccc3n12`, which GI50 (OVCAR-3 ovarian) is on record?
Its GI50 is 1350 nM.

What about the TGI (OVCAR-3 ovarian) of the same compound?
Its TGI is 2880 nM.

And the GI50 (SF-295 CNS)?
Its GI50 is 1570 nM.

And the TGI (SF-295 CNS)?
Its TGI is 3120 nM.

And the GI50 (A549 NSCLC)?
Its GI50 is 1460 nM.

What about the TGI (A549 NSCLC) of the same compound?
Its TGI is 5010 nM.

What about the GI50 (IGROV1 ovarian) of the same compound?
The GI50 was 2380 nM.

And the TGI (IGROV1 ovarian)?
The TGI was over 100000 nM.

What about the GI50 (SNB-75 CNS) of the same compound?
Its GI50 is 1530 nM.

What about the TGI (SNB-75 CNS) of the same compound?
Its TGI is 3170 nM.

And the GI50 (NCI-H522 lung)?
The GI50 was 1720 nM.

And the TGI (NCI-H522 lung)?
Its TGI is 4520 nM.

And the GI50 (SN12C renal)?
The GI50 was 2680 nM.

What about the TGI (SN12C renal) of the same compound?
The TGI was 8330 nM.

And the GI50 (MALME-3M melanoma)?
The GI50 was 1950 nM.

What about the TGI (MALME-3M melanoma) of the same compound?
The TGI was 3690 nM.

What about the GI50 (SK-OV-3 ovarian) of the same compound?
The GI50 was 2000 nM.

What about the TGI (SK-OV-3 ovarian) of the same compound?
Its TGI is 4800 nM.

What about the GI50 (OVCAR-5 ovarian) of the same compound?
Its GI50 is 3080 nM.

And the TGI (OVCAR-5 ovarian)?
The TGI was over 100000 nM.

And the GI50 (NCI-H460 lung)?
The GI50 was 1420 nM.

What about the TGI (NCI-H460 lung) of the same compound?
Its TGI is 3310 nM.

What about the GI50 (SK-MEL-5 melanoma) of the same compound?
The GI50 was 1700 nM.

What about the TGI (SK-MEL-5 melanoma) of the same compound?
The TGI was 3110 nM.

And the GI50 (RXF 393 renal)?
Its GI50 is 1420 nM.

What about the TGI (RXF 393 renal) of the same compound?
The TGI was 2850 nM.

And the GI50 (SR leukemia)?
Its GI50 is 240 nM.

And the TGI (SR leukemia)?
Its TGI is 613 nM.

And the GI50 (SF-539 CNS)?
The GI50 was 1740 nM.

And the TGI (SF-539 CNS)?
Its TGI is 3330 nM.

And the GI50 (HOP-62 NSCLC)?
Its GI50 is 2480 nM.

And the TGI (HOP-62 NSCLC)?
The TGI was 9460 nM.

And the GI50 (A498 renal)?
Its GI50 is 1990 nM.

And the TGI (A498 renal)?
Its TGI is 5130 nM.

What about the GI50 (ACHN renal) of the same compound?
Its GI50 is 1660 nM.

And the TGI (ACHN renal)?
Its TGI is 3300 nM.

What about the GI50 (SF-268 CNS) of the same compound?
The GI50 was 2540 nM.

And the TGI (SF-268 CNS)?
Its TGI is 16200 nM.

And the GI50 (TK-10 renal)?
Its GI50 is 1910 nM.

And the TGI (TK-10 renal)?
The TGI was 4440 nM.

What about the GI50 (U251 CNS) of the same compound?
The GI50 was 1530 nM.

What about the TGI (U251 CNS) of the same compound?
The TGI was 3110 nM.

What about the GI50 (CCRF-CEM leukemia) of the same compound?
Its GI50 is 505 nM.

What about the TGI (CCRF-CEM leukemia) of the same compound?
The TGI was 3550 nM.

What about the GI50 (CAKI-1 renal) of the same compound?
The GI50 was 2920 nM.

What about the TGI (CAKI-1 renal) of the same compound?
The TGI was over 100000 nM.

And the GI50 (LOX IMVI melanoma)?
The GI50 was 1530 nM.

What about the TGI (LOX IMVI melanoma) of the same compound?
Its TGI is 2990 nM.

And the GI50 (NCI/ADR-RES ovarian)?
The GI50 was 2800 nM.

And the TGI (NCI/ADR-RES ovarian)?
The TGI was over 100000 nM.

And the GI50 (NCI-H23 lung)?
The GI50 was 3820 nM.

And the TGI (NCI-H23 lung)?
Its TGI is over 100000 nM.

And the GI50 (UACC-62 melanoma)?
Its GI50 is 2260 nM.

And the TGI (UACC-62 melanoma)?
Its TGI is 4740 nM.

And the GI50 (HCC-2998 colon)?
The GI50 was 2300 nM.

What about the TGI (HCC-2998 colon) of the same compound?
Its TGI is over 100000 nM.

What about the GI50 (K-562 leukemia) of the same compound?
The GI50 was 1230 nM.

And the TGI (K-562 leukemia)?
The TGI was 3200 nM.

What about the GI50 (HCT-15 colon) of the same compound?
Its GI50 is 1470 nM.

What about the TGI (HCT-15 colon) of the same compound?
The TGI was 4650 nM.

What about the GI50 (HCT-116 colon) of the same compound?
Its GI50 is 758 nM.

What about the TGI (HCT-116 colon) of the same compound?
The TGI was 2090 nM.

And the GI50 (MCF7 breast)?
Its GI50 is 1520 nM.

And the TGI (MCF7 breast)?
The TGI was over 100000 nM.

What about the GI50 (T-47D breast) of the same compound?
Its GI50 is 2160 nM.

What about the TGI (T-47D breast) of the same compound?
The TGI was 5310 nM.

What about the GI50 (PC-3 prostate) of the same compound?
Its GI50 is 5280 nM.

And the TGI (PC-3 prostate)?
Its TGI is over 100000 nM.

And the GI50 (HT29 colon)?
The GI50 was 1600 nM.

And the TGI (HT29 colon)?
Its TGI is 4470 nM.

What about the GI50 (UO-31 renal) of the same compound?
The GI50 was 1530 nM.

What about the TGI (UO-31 renal) of the same compound?
The TGI was 2950 nM.

What about the GI50 (786-0 renal) of the same compound?
Its GI50 is 1560 nM.

What about the TGI (786-0 renal) of the same compound?
Its TGI is 3460 nM.

What about the GI50 (DU-145 prostate) of the same compound?
Its GI50 is 2650 nM.

What about the TGI (DU-145 prostate) of the same compound?
Its TGI is over 100000 nM.

What about the GI50 (EKVX NSCLC) of the same compound?
The GI50 was 4070 nM.

What about the TGI (EKVX NSCLC) of the same compound?
Its TGI is over 100000 nM.

And the GI50 (RPMI-8226 leukemia)?
The GI50 was 1990 nM.

What about the TGI (RPMI-8226 leukemia) of the same compound?
The TGI was 5300 nM.

What about the GI50 (HL-60(TB) leukemia) of the same compound?
Its GI50 is 1110 nM.

What about the TGI (HL-60(TB) leukemia) of the same compound?
Its TGI is 2930 nM.

What about the GI50 (MDA-MB-435) of the same compound?
The GI50 was 1710 nM.

And the TGI (MDA-MB-435)?
Its TGI is 3470 nM.

And the GI50 (KM12 colon)?
Its GI50 is 2590 nM.

And the TGI (KM12 colon)?
Its TGI is over 100000 nM.

What about the GI50 (COLO 205 colon) of the same compound?
The GI50 was 623 nM.

What about the TGI (COLO 205 colon) of the same compound?
The TGI was 2240 nM.

And the GI50 (HS 578T breast)?
The GI50 was 2420 nM.

What about the TGI (HS 578T breast) of the same compound?
The TGI was 7480 nM.

And the GI50 (UACC-257 melanoma)?
The GI50 was 1870 nM.

And the TGI (UACC-257 melanoma)?
The TGI was 3710 nM.

And the GI50 (SNB-19 CNS)?
Its GI50 is 4570 nM.

What about the TGI (SNB-19 CNS) of the same compound?
The TGI was over 100000 nM.

What about the GI50 (M14 melanoma) of the same compound?
Its GI50 is 1580 nM.

What about the TGI (M14 melanoma) of the same compound?
Its TGI is 3230 nM.

And the GI50 (NCI-H226 lung)?
Its GI50 is 2020 nM.

What about the TGI (NCI-H226 lung) of the same compound?
The TGI was 8390 nM.

What about the GI50 (SK-MEL-2 melanoma) of the same compound?
Its GI50 is 5150 nM.

And the TGI (SK-MEL-2 melanoma)?
Its TGI is 31500 nM.

And the GI50 (OVCAR-8 ovarian)?
Its GI50 is 2130 nM.

What about the TGI (OVCAR-8 ovarian) of the same compound?
The TGI was 5320 nM.

And the GI50 (HOP-92 NSCLC)?
The GI50 was 2230 nM.

What about the TGI (HOP-92 NSCLC) of the same compound?
Its TGI is 4360 nM.

And the GI50 (SK-MEL-28 melanoma)?
The GI50 was 1720 nM.

What about the TGI (SK-MEL-28 melanoma) of the same compound?
Its TGI is 3450 nM.

And the GI50 (SW-620 colon)?
The GI50 was 488 nM.

And the TGI (SW-620 colon)?
Its TGI is 2670 nM.

Which GI50 (SF-295 CNS) does the source give for `OCCNc1nc(NCCO)nc(Nc2ccc(C3=NN(c4cc(Cl)cc(Cl)c4)C(c4ccc(C(F)(F)F)cc4)C3)cc2)n1` (stereo not drawn) here?
Its GI50 is 1360 nM.

And the TGI (SF-295 CNS)?
The TGI was 2710 nM.

And the GI50 (SK-MEL-5 melanoma)?
Its GI50 is 1720 nM.

And the TGI (SK-MEL-5 melanoma)?
Its TGI is 3110 nM.

And the GI50 (ACHN renal)?
Its GI50 is 1370 nM.

And the TGI (ACHN renal)?
Its TGI is 2660 nM.

And the GI50 (LOX IMVI melanoma)?
Its GI50 is 1560 nM.

What about the TGI (LOX IMVI melanoma) of the same compound?
The TGI was 2970 nM.

And the GI50 (UO-31 renal)?
Its GI50 is 1550 nM.

And the TGI (UO-31 renal)?
The TGI was 2920 nM.
